Assay results taken from ChEMBL document CHEMBL1201862, “PubChem BioAssay data set” (2004).
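Each compound was tested at five concentrations against cells in 96-well plates for 48 hours. GI50 is the concentration that inhibits growth by half.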 Calls of active or inactive are those of the source. No stated cut-off is given here; in the data, active = GI50 up to about 1.1 µM and inactive = higher. Where a SMILES comes first, the peptide text is derived from it. The star is where a group is joined. Cbz = O=C(OCc1ccccc1)*

Experiments:
Assay in all cases: NCI tumour cell line growth inhibition, 48 h
[1] = test system: OVCAR-3
[2] = test system: BT-549
[3] = test system: SN12C
[4] = test system: SK-MEL-28
[5] = test system: KM12
[6] = test system: RXF 393
[7] = test system: NCI-H460
[8] = test system: SR
[9] = test system: NCI/ADR-RES
[10] = test system: NCI-H23
[11] = test system: UACC-257
[12] = test system: ACHN
[13] = test system: A498
[14] = test system: HCC 2998
[15] = test system: MCF7
[16] = test system: HCT-116
[17] = test system: CAKI-1
[18] = test system: UACC-62

Measured: GI50

CCCc1cc(=O)oc2c3c(c4c(c12)OC(C)(C)C=C4)O[C@@H](C)[C@H](C)C3=O
inactive: [1] 17.2 µM | [2] 13.7 µM | [3] 18.7 µM | [4] 13 µM | [5] 13.6 µM | [6] > 10 µM | [7] 15.8 µM | [8] 10.2 µM | [9] 12.5 µM | [10] 17 µM | [11] 19.7 µM | [12] 12.4 µM | [13] 14.7 µM | [14] 15.3 µM | [15] 17.6 µM | [16] 10.4 µM | [17] 28.9 µM

Cc1[nH]c(-c2ccccc2)c(-c2ccc(Cl)cc2)c1C(=O)ONC(=O)c1ccccc1
inactive: [1] 3.2 µM | [2] 2.56 µM | [3] 2.25 µM | [4] 8.38 µM | [5] 7.24 µM | [6] 2.12 µM | [7] 2.11 µM | [18] 10.1 µM | [9] 3.23 µM | [10] 4.02 µM | [11] 6.82 µM | [12] 1.77 µM | [13] 6.24 µM | [14] 3.32 µM | [15] 11.9 µM | [16] 2.11 µM | [17] 2.44 µM

O=c1c2cc(S(=O)(=O)Nc3ccc(Cl)cc3Cl)ccc2ncn1NS(=O)(=O)c1cccc2ccccc12
inactive: [1] 33.9 µM | [2] 16.5 µM | [3] 91.6 µM | [4] 99.5 µM | [5] 22.4 µM | [7] 36.6 µM | [18] 28.9 µM | [8] 22.9 µM | [9] 31.3 µM | [10] 40.4 µM | [11] 77.6 µM | [12] 47.5 µM | [14] 20 µM | [15] 20.7 µM | [16] 30.5 µM | [17] 15.7 µM

Cc1ccc(/C=C2\NC(=S)N(CN3CCCCC3)C2=O)cc1
inactive: [1] 65.3 µM | [3] 63.7 µM | [4] 79.3 µM | [5] > 100 µM | [18] 33.3 µM | [8] 83.6 µM | [9] 57.7 µM | [10] > 100 µM | [12] 43.2 µM | [13] 41.3 µM | [15] 28.4 µM | [16] 36.6 µM

Nc1nc(NNc2cccc(F)c2)cc(=O)[nH]1
inactive: [1] 24.9 µM | [2] 77.1 µM | [3] 65.8 µM | [4] > 100 µM | [5] 22.4 µM | [7] 44 µM | [8] 27 µM | [9] 44.9 µM | [10] 48.3 µM | [11] > 100 µM | [12] 43.6 µM | [13] > 100 µM | [14] 35.5 µM | [15] 29.5 µM | [16] 24 µM

CC1=C(O)C(=O)C2C(=O)C1C(C)C2c1ccccc1 (stereo unspecified)
inactive: [1] > 100 µM | [4] > 100 µM | [5] > 100 µM | [6] > 100 µM | [18] > 100 µM | [8] > 100 µM | [10] > 100 µM | [11] > 100 µM | [12] > 100 µM | [13] > 100 µM | [14] > 100 µM | [17] > 100 µM

N#Cc1nc(C(=O)c2ccccc2)oc1N
inactive: [3] > 100 µM | [4] > 100 µM | [5] > 100 µM | [18] > 100 µM | [11] > 100 µM | [12] > 100 µM | [13] > 100 µM | [15] > 100 µM | [16] > 100 µM | [17] > 100 µM

CCCNC(=O)Nc1ccc2c(c1)Cc1cc(N(CCCl)CCCl)ccc1-2
inactive: [1] 22.1 µM | [2] 22 µM | [3] 33 µM | [4] 11.5 µM | [5] 22 µM | [6] 15.5 µM | [7] 7.16 µM | [18] 21.9 µM | [8] 1.32 µM | [9] 36.2 µM | [10] 36.1 µM | [11] 41.7 µM | [12] 5.47 µM | [13] 10.6 µM | [14] 28.2 µM | [15] 8.73 µM | [16] 49.9 µM | [17] 22.4 µM

COc1ccc(C2C3=C(COC3=O)Oc3cc4c(cc32)OCO4)c(OC)c1 (stereo unspecified)
inactive: [1] 5.52 µM | [2] 22.9 µM | [3] 6.75 µM | [4] 23 µM | [5] 5.19 µM | [6] 16.1 µM | [7] 17.4 µM | [18] 6.79 µM | [8] 4.99 µM | [9] 10 µM | [10] 19 µM | [11] 47.9 µM | [12] 19.9 µM | [13] 16.1 µM | [14] 20.8 µM | [15] 6.89 µM | [16] 6.24 µM | [17] 18.6 µM

CC(C)(C)c1cc(/C=C/C(=O)CC(=O)/C=C/c2cc(C(C)(C)C)c(O)c(C(C)(C)C)c2)cc(C(C)(C)C)c1O
inactive: [1] > 50 µM | [2] > 50 µM | [3] > 50 µM | [4] > 50 µM | [5] 28.4 µM | [6] > 50 µM | [7] > 50 µM | [18] > 50 µM | [9] > 50 µM | [10] > 50 µM | [11] > 50 µM | [12] > 50 µM | [15] > 50 µM | [16] > 50 µM

Nc1nc2c(-c3ccc([N+](=O)[O-])cc3)nnn2c2ccccc12
inactive: [1] 29.6 µM | [3] > 100 µM | [4] > 100 µM | [5] > 100 µM | [7] > 100 µM | [18] > 100 µM | [10] 37.2 µM | [12] > 100 µM | [13] > 100 µM | [14] > 100 µM | [17] > 100 µM

NC1=NC(=O)[C@H](CSCc2ccccc2)N1C(=O)OCc1ccccc1
inactive: [1] > 100 µM | [2] > 100 µM | [3] > 100 µM | [5] > 100 µM | [6] > 100 µM | [7] > 100 µM | [18] > 100 µM | [8] > 100 µM | [9] > 100 µM | [10] > 100 µM | [11] > 100 µM | [12] > 100 µM | [13] > 100 µM | [14] > 100 µM | [15] > 100 µM | [16] > 100 µM | [17] > 100 µM

CCOC(=O)CCC(NC(=O)CNC(=O)CNC(=O)C(CCC(=O)OCC)NC(=O)C(CCC(=O)OCC)NC(=O)C(CCC(=O)OCC)NC(=O)OCc1ccccc1)C(=O)NC(CCC(=O)OCC)C(=O)NC(CCC(=O)OCC)C(=O)OCC (stereo unspecified) (Cbz-E(OEt)E(OEt)E(OEt)GGE(OEt)E(OEt)E(OEt)-OEt; configuration not given here)
inactive: [3] > 75 µM | [4] > 75 µM | [5] > 75 µM | [6] > 75 µM | [7] > 75 µM | [18] > 75 µM | [8] > 75 µM | [9] > 75 µM | [10] > 75 µM | [11] > 75 µM | [12] > 75 µM | [15] > 75 µM | [16] > 75 µM | [17] > 75 µM
